MIC data for six compounds are collected here from patent publication US11180509B2, “Thiazolidone spiro pyrimidine trione compound, preparation method therefor and uses thereof” (SHANGHAI INSTITUTE OF MATERIA MEDICA, CHINESE ACADEMY OF …, priority 2017, dated 2021).

Structures are written as SMILES. In brackets after ≈: the same amount, converted by molar mass. Where two headings read alike, the source gives them in different places.

Test in all cases: In vitro antibacterial activity, MIC by micro broth dilution
Type in all cases: cell-based

Test [1] relates to Streptococcus pyogenes. The settings on record: read-out: MIC Spy. An excerpt:
(§1) The following strains isolated in clinic were used in antibacterial activity screening in vitro: five strains of methicillin-resistant Staphylococcus aureus or MRSA, five strains of methicillin-sensitive Staphylococcus aureus or MSSA, five strains of methicillin-resistant Staphylococcus epidermidis or MRSE, five strains of methicillin-sensitive Staphylococcus epidermidis or MSSE, three strains of penicillin-resistant Streptococcus pneumoniae or PRSP, and three strains of Streptococcus pyogenes.
(§2) The above strains were clinically isolated pathogenic bacteria collected in Sichuan and Beijing in December 2015. They were identified by the collection unit via a VITEK-60 automatic microbiological identification instrument, and then re-identified by conventional methods in the laboratory. Before the experiment, each strain was purified by a single colony on an agar plate, and the cells freshly cultured at 37° C. overnight were appropriately diluted for the experiment. Quality control strain was Staphylococcus aureus ATCC25923 purchased from the Clinical Testing Center of the Ministry of Health of the People's Republic of China.
(§3) Medium: MH (Mueller-Hinton, hydrolyzed casein) broth (OXOID);
(§4) Culture condition: Incubate at 35-37° C. for 16-18 h.
(§5) The MIC value of each test sample for the tested strain was determined by micro broth dilution method recommended by Performance Standards for Antimicrobial Susceptibility Testing (Twenty-Third Informational Supplement; M02-A11, M07-A9 and M11-A8, 2013) of American Clinical and Laboratory Standards Institute (CLSI).
(§6) After diluting each test sample to different concentrations in MH broth, 100 μl of each sample solution at different concentrations was pipetted into a sterilized 96-well polystyrene plate. In the first to twelfth wells, the drug solution was added, and the final drug concentrations in each well were 64, 32, 16, 8, 4, 2, 1, 0.5, 0.25, 0.125, 0.06, and 0.03 mg/L. The well without drug and without bacteria was set as blank control well. The well with bacteria and without drug was set as a bacterial growth control well.
(§7) The test bacterial solution was adjusted with physiological saline to a bacterial suspension equivalent to 0.5 Maisson turbidity standard, and diluted 1:100 with MH broth. The drug solution was added so that the final concentration of the bacterial solution was about 10^4 CFU/ml; then 100 μl of bacterial solution was pipetted into the above wells (the total volume in each well was 200 μl). The plate was sealed and placed in a 35-37° C. incubator for 18-20 h, and then the results were determined. […] When Streptococcus pneumoniae was tested, sterile defibrillated sheep blood was added into the Colombian broth culture medium at a final concentration of 5% and cultivation was conducted in a 5% CO2 and 35-37° C. incubator for 18-20 hours.

Test [2] concerns methicillin-resistant Staphylococcus aureus or MRSA. The note with it: read-out: MIC MRSA.
Source text: as §1, §2, §3, §4, §5, §6, §7

Test [3] deals with methicillin-resistant Staphylococcus epidermidis or MRSE. The settings on record: read-out: MIC MRSE.
Source text: as §1, §2, §3, §4, §5, §6, §7

For test [4], the system named is methicillin-sensitive Staphylococcus aureus or MSSA. The settings on record: read-out: MIC MSSA.
Source text: as §1, §2, §3, §4, §5, §6, §7

The test system of test [5] is methicillin-sensitive Staphylococcus epidermidis or MSSE. The settings on record: read-out: MIC MSSE.
Source text: as §1, §2, §3, §4, §5, §6, §7

The subject of test [6] is penicillin-resistant Streptococcus pneumoniae or PRSP. The note with it: read-out: MIC PRSP.
Source text: as §1, §2, §3, §4, §5, §6, §7

The mark [7] stands for this setting: 3 clinical strains, range over strains.

Usually MIC stands for the lowest concentration found to suppress growth. Consider `C[C@@H]1CN2c3c(cc4c(N5C(=O)S[C@@H]6CCC[C@@H]65)noc4c3F)CC3(C(=O)NC(=O)NC3=O)[C@H]2[C@H](C)O1` [Compound 21, (2R,4S,4aS)-11-fluoro-2,4-dimethyl-8-((3aS,6aR)-2-oxotetrahydro-2H-cyclopentane[d]thiazol-3(3aH)-yl)-1,2,4,4a-tetrahydro-2′H,6H-spiro[isoxazole[4,5-g][1,4]oxazine [4,3-a]quinoline-5,5′-pyrimidine]-2′,4′,6′(1′H,3′H)-trione], for which the MIC lay in the range of 0.03 to 0.125 µg/mL (≈ 0.0567 to 0.236 µM) in test [1]; 0.03 to 0.125 µg/mL (≈ 0.0567 to 0.236 µM) in test [2]; 0.03 to 0.06 µg/mL (≈ 0.0567 to 0.113 µM) in test [3]; 0.03 to 0.125 µg/mL (≈ 0.0567 to 0.236 µM) in test [4]; 0.03 to 0.125 µg/mL (≈ 0.0567 to 0.236 µM) in test [5]; 0.03 to 0.125 µg/mL (≈ 0.0567 to 0.236 µM) in test [6].

As for `C[C@@H]1CN2c3c(cc4c(N5C[C@H](CF)SC5=O)noc4c3F)CC3(C(=O)NC(=O)NC3=O)[C@H]2[C@H](C)O1` [Compound 6], the MIC in test [1] is 0.03 to 0.06 µg/mL (≈ 0.0575 to 0.115 µM); in test [2], 0.03 to 1 µg/mL (≈ 0.0575 to 1.92 µM); in test [3] it was 0.03 to 0.06 µg/mL (≈ 0.0575 to 0.115 µM); in test [4] it was 0.06 to 0.125 µg/mL (≈ 0.115 to 0.24 µM); in test [5], less than 0.03 µg/mL; in test [6], 0.06 to 0.25 µg/mL (≈ 0.115 to 0.479 µM).

`C[C@@H]1CN2c3c(cc4c(N5C[C@H](CN=[N+]=[N-])SC5=O)noc4c3F)CC3(C(=O)NC(=O)NC3=O)[C@H]2[C@H](C)O1` [Compound 10, (2R,4S,4aS)-8-((R)-5-(azidomethyl)-2-oxothiazol-3-yl)-11-fluoro-2,4-dimethyl-1,2,4,4a-tetrahydro-2′H,6H-spiro[isoxazole[4,5-g][1,4]oxazine[4,3-a]quinoline-5,5′-pyrimidine]-2′,4′,6′(1′H,3′H)-trione]: the MIC in test [1] was 0.125 to 1 µg/mL (≈ 0.23 to 1.84 µM); in test [2], 0.25 to 0.5 µg/mL (≈ 0.459 to 0.918 µM); in test [3] it was 0.03 to 0.125 µg/mL (≈ 0.0551 to 0.23 µM); in test [4], 0.06 to 0.25 µg/mL (≈ 0.11 to 0.459 µM); in test [5], 0.03 to 0.25 µg/mL (≈ 0.0551 to 0.459 µM); in test [6], 0.125 µg/mL (≈ 0.23 µM).

For `C[C@@H]1CN2c3c(cc4c(N5C(=O)SC[C@H]5C)noc4c3F)CC3(C(=O)NC(=O)NC3=O)[C@H]2[C@H](C)O1` [Compound 4, (2R,4S,4aS)-11-fluoro-2,4-dimethyl-8-((R)-4-methyl-2-oxothiazolin-3-yl)-1,2,4,4a-tetrahydro-2′H,6H-spiro[isoxazole[4,5-g][1,4]oxazine[4,3-a]quinoline-5,5′-pyrimidine]-2′,4′,6′(1′H,3′H)-trione], the MIC in test [1] is 0.125 to 0.25 µg/mL (≈ 0.248 to 0.497 µM); in test [2] it was 0.03 to 0.5 µg/mL (≈ 0.0596 to 0.993 µM); in test [3] it was 0.03 to 0.125 µg/mL (≈ 0.0596 to 0.248 µM); in test [4], 0.25 to 0.5 µg/mL (≈ 0.497 to 0.993 µM); in test [5], 0.03 to 0.125 µg/mL (≈ 0.0596 to 0.248 µM); in test [6], 0.25 to 1 µg/mL (≈ 0.497 to 1.99 µM).

On to `C[C@@H]1CN2c3c(cc4c(N5C(=O)SC[C@@H]5C)noc4c3F)CC3(C(=O)NC(=O)NC3=O)[C@H]2[C@H](C)O1` [Compound 5, (2R,4S,4aS)-11-fluoro-2,4-dimethyl-8-((S)-4-methyl-2-oxothiazolin-3-yl)-1,2,4,4a-tetrahydro-2′H,6H-spiro[isoxazole[4,5-g][1,4]oxazine[4,3-a]quinoline-5,5′-pyrimidine]-2′,4′,6′(1′H,3′H)-trione], for which the MIC lay within 0.125 to 0.25 µg/mL (≈ 0.248 to 0.497 µM) in test [1]; 0.03 to 0.25 µg/mL (≈ 0.0596 to 0.497 µM) in test [2]; 0.06 to 0.25 µg/mL (≈ 0.119 to 0.497 µM) in test [3]; 0.25 to 0.5 µg/mL (≈ 0.497 to 0.993 µM) in test [4]; 0.03 to 0.125 µg/mL (≈ 0.0596 to 0.248 µM) in test [5]; 0.125 to 1 µg/mL (≈ 0.248 to 1.99 µM) in test [6].

`C[C@H]1COc2c(N3CCN(C)CC3)c(F)cc3c(=O)c(C(=O)O)cn1c23` [levofloxacin, reference compound]: the MIC was 0.5 to 1 µg/mL (≈ 1.38 to 2.77 µM) in test [1] (setting [7]); 0.5 to 4 µg/mL (≈ 1.38 to 11.1 µM) in test [5] (5 clinical strains, range over strains); 1 µg/mL (≈ 2.77 µM) in test [6] (setting [7]).
